Assay results reported in ChEMBL document CHEMBL1201862, “PubChem BioAssay data set” (2004).
The source made the active and inactive calls.

Experiments:
[1] = Fluorescence-based cell-based high throughput dose response assay for inhibitors of the interaction of nucleotide-binding oligomerization domain containing 2 (NOD2) and the receptor-interacting serine-threonine kinase 2 (RIPK2).; assay type: functional; conditions: Homo sapiens
[2] = Luminescence Cell-Based Dose Retest to Confirm Inhibitors of Cancer Stem Cells. [Related pubchem assays (depositor defined):AID2717, AID2721]; assay type: functional; conditions: Homo sapiens
[3] = molecular target: Beta Lactamase (Pseudomonas aeruginosa, UniProt Q932Y6); experiment: BLA reporter interference, concentration series – BLA reporter cells, FRET fluorescence, artefact control for NOD2-RIPK2 interaction inhibitor project, dose response (AID 651552); assay type: functional, cell-based
[4] = general cell-killing toxicity readout – plate reader, dry powder samples, cytotoxicity control for PAX8 inhibitor project, dose response (AID 743021); assay type: functional, cell-based
[5] = molecular target: Paired box protein Pax-8 (Homo sapiens, UniProt Q06710); experiment: PAX8 transcriptional activity inhibition in RMG-I – RMG-I cells, luciferase, cherry-pick, dose response (AID 687027); assay type: functional, cell-based;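 further: luciferase reporter driven by Pax8 target thyroperoxidase promoter measured by SteadyGlo luminescence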
[6] = molecular target: Mitochondrial peptide methionine sulfoxide reductase (Bos taurus, UniProt P54149); assay type: functional;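 further: absorbance read-out, biochemical high-throughput dose-response screen for MsrA inhibitors, confirmatory; recombinant bovine MsrA coupled to E. coli TrxB with NADPH and selenocystamine; potency is for inhibitors of MsrA activity on DMSO substrate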
[7] = molecular target: Glucose-6-phosphate 1-dehydrogenase (Homo sapiens, UniProt P11413); experiment: inhibition of Homo sapiens G6PD, dose series – biochemical, fluorescence, selectivity assay for P. falciparum G6PD inhibitor project, dose response (AID 504792); assay type: functional
[8] = HIV-1 AD8 envelope cell-cell fusion blockers – cherry-pick, dose response (AID 652062); assay type: functional, cell-based;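 further: luciferase signal from cell-cell fusion driven by HIV-1 clade B AD8 Env; potency is for inhibitors of fusion seen as a drop in luminescence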
[9] = viability loss in CEM21 cells – cell-based, CellTiter-Glo luminescence, cherry-picked, cytotoxicity control for viral fusion inhibitor project, dose response (AID 652042); assay type: functional;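 further: potency for signal decrease meaning cytotoxicity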
[10] = off-target signal loss in HeLa-CEM21 co-culture – HeLa F-luc CTL cells, cherry-picked, counter-screen for HIV-1 Env fusion inhibitor project, dose response (AID 652040); assay type: functional, cell-based;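 further: potency for signal decrease marking cytotoxic or nonspecific inhibition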
[11] = blockers of HIV-1 ZM109 envelope-driven cell-cell fusion – HeLa effector, CEM target cells, luciferase, cherry-pick, dose response (AID 652058); assay type: functional, cell-based;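 further: luciferase signal from HIV-1 Env mediated cell-cell fusion of effector and target cells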
[12] = blockers of HIV-1 envelope-mediated cell-cell fusion – cherry-pick, dose response (AID 652057); assay type: functional, cell-based
[13] = system: BJ; experiment: BJ-TERT-LT-ST fibroblast viability loss – cell-based, RAS-independent, luminescence, dose response (AID 1935); assay type: functional; conditions: Homo sapiens;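 further: BJ fibroblasts immortalized with TERT plus LT and ST oncogenes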
[14] = molecular target: DNA repair and recombination protein RAD54-like (Homo sapiens, UniProt Q92698); experiment: RAD54 Holliday junction migration blockers – biochemical, fluorescence, cherry-picked samples, dose series, confirmation (AID 651657); assay type: functional
[15] = molecular target: SWI/SNF-related matrix-associated actin-dependent regulator of chromatin subfamily A member 2 (Homo sapiens, UniProt P51531); experiment: Luminescence-based cell-based high throughput dose response assay to identify activators of the function of SWI/SNF related, matrix associated, actin dependent regulator of chromatin, subfamily a, member 2 (SMARCA2, BRM).; assay type: functional
[16] = cells; assay type: functional, cell-based
[17] = DRD fibroblast viability loss – cell-based, non-viral oncogenic, luminescence, dose response (AID 1934); assay type: functional; conditions: Homo sapiens
[18] = system: INS1; experiment: INS-1E survival protection against cytokine death – cell-based, luminescence, retest, dose response (AID 449756); assay type: functional; conditions: Rattus norvegicus;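 further: cell death triggered by IL-1 beta plus TNF-alpha plus IFN-gamma mixture; protective hits raise ATP signal compared with cytokine alone wells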
[19] = Counterscreen for activators of the function of SWI/SNF related, matrix associated, actin dependent regulator of chromatin, subfamily a, member 2 (SMARCA2, BRM): Luminescence-based cell-based high throughput dose response assay to identify non-selective compounds using the VP16 reporter assay.; assay type: functional
[20] = system: BJ; experiment: cells; assay type: functional, cell-based; conditions: Homo sapiens
[21] = cells; assay type: functional, cell-based; remark: listed apart in the source
[22] = system: BJ; experiment: BJ-TERT fibroblast viability loss – cell-based, RAS-independent, luminescence, dose response (AID 1933); assay type: functional; conditions: Homo sapiens
[23] = molecular target: Aryl hydrocarbon receptor (Homo sapiens, UniProt P35869); experiment: Luminescence-based cell-based high throughput dose response assay for activators of the Aryl Hydrocarbon Receptor (AHR). [Related pubchem assays: 2796 (Primary screen (AHR activators in singlicate)), 2845 (Confirmation screen (AHR activators in triplicate)), 434939 (Counterscreen (PXR activators in triplicate)), 2804 (Summary (AHR activators))]; assay type: ADME
Chain of Aryl hydrocarbon receptor (P35869 whole entry): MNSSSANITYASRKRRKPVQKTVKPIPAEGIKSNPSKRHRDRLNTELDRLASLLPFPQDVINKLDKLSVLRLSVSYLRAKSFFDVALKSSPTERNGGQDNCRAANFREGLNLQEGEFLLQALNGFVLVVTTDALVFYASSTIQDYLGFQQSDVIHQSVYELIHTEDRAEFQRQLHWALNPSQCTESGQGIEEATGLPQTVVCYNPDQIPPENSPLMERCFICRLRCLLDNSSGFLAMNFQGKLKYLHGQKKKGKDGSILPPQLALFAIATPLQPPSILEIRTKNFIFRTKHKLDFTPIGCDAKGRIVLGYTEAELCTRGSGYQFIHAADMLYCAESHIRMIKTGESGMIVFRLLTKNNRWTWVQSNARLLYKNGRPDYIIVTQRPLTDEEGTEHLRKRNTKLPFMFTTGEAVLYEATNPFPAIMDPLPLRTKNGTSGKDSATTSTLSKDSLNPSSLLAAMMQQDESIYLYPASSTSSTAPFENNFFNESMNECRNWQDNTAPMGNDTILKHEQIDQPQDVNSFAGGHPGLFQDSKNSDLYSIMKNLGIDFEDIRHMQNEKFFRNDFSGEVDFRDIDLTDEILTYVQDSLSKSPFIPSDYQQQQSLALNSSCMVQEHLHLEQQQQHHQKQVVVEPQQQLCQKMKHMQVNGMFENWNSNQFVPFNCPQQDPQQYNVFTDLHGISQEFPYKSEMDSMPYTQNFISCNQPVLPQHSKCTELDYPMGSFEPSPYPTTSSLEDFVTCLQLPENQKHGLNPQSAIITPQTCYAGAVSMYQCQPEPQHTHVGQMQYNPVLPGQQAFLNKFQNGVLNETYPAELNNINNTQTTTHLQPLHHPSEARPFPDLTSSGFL

Chain of SWI/SNF-related matrix-associated actin-dependent regulator of chromatin subfamily A member 2 (P51531 whole entry): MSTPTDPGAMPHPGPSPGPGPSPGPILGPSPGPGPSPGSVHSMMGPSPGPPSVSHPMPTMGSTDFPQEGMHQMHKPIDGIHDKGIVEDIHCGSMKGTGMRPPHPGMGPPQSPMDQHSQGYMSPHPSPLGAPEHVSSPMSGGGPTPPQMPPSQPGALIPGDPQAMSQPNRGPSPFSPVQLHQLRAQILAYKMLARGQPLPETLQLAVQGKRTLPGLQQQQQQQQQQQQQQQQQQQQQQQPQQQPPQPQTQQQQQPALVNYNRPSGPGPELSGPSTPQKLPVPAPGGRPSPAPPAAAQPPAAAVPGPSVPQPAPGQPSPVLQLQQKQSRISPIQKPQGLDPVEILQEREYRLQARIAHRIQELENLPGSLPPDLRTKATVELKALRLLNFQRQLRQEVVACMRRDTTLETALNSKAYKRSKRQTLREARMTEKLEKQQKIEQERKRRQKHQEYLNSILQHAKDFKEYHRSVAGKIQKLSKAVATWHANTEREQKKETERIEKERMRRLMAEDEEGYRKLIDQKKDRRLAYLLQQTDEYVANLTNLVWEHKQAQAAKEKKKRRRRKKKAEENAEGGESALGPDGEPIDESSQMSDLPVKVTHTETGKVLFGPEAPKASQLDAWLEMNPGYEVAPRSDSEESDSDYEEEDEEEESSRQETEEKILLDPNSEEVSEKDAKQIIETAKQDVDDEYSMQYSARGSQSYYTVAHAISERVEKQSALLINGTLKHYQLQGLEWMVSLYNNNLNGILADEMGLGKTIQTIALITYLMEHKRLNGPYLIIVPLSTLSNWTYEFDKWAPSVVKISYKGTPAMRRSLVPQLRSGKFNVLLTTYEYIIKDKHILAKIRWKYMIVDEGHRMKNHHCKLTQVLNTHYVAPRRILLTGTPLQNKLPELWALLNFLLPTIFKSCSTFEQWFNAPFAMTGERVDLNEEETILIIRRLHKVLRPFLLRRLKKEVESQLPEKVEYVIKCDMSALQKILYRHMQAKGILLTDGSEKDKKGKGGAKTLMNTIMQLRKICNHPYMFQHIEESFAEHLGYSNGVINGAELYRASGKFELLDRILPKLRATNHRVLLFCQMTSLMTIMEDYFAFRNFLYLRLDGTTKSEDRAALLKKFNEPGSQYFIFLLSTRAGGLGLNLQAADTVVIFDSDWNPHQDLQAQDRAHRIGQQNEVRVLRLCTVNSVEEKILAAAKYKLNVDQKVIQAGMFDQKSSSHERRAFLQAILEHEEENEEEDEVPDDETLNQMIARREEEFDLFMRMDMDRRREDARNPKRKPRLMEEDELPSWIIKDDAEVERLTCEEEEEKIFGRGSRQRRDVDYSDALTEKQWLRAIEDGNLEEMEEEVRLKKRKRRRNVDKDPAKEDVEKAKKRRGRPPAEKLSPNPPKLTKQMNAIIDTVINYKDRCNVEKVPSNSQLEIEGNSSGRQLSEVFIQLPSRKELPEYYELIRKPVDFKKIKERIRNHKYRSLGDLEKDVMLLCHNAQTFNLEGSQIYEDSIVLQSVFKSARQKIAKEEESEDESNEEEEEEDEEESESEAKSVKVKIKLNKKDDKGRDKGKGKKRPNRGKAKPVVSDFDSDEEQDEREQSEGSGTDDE
Chain of Glucose-6-phosphate 1-dehydrogenase (P11413 whole entry, the tested form may be a part): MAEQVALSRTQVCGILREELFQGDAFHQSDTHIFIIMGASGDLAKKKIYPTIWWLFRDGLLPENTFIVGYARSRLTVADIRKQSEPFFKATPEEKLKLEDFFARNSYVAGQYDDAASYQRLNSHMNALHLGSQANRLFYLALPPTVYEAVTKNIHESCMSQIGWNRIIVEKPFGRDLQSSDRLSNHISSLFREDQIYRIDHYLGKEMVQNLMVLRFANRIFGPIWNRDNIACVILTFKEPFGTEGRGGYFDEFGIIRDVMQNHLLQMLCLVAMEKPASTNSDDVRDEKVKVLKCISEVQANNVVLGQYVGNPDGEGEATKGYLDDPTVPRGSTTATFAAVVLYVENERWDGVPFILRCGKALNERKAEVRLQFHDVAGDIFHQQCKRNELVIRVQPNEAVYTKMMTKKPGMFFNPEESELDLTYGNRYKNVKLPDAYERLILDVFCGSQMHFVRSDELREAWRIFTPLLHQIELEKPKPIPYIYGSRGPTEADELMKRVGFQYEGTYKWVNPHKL
Chain of Paired box protein Pax-8 (Q06710 whole entry): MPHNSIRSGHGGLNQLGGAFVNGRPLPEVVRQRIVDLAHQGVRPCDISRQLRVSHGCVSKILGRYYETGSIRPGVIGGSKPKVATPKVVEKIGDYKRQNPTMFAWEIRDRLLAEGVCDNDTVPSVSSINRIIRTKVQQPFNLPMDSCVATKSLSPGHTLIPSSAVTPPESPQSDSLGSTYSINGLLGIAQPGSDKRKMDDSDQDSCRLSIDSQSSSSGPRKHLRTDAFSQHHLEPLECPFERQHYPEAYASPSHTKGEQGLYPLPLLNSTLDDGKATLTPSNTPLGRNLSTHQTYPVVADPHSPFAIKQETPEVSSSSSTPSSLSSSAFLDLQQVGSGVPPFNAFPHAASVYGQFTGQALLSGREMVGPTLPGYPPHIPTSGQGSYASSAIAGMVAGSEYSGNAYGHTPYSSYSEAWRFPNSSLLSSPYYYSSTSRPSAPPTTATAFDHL
Chain of Mitochondrial peptide methionine sulfoxide reductase (P54149 whole entry): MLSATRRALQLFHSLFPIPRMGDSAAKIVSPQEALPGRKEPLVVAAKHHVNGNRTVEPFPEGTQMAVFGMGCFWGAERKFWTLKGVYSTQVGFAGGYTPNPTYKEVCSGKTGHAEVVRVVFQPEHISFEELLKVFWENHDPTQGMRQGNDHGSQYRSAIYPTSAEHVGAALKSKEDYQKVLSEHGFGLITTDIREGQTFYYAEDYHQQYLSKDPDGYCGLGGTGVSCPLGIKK
Chain of DNA repair and recombination protein RAD54-like (Q92698 whole entry): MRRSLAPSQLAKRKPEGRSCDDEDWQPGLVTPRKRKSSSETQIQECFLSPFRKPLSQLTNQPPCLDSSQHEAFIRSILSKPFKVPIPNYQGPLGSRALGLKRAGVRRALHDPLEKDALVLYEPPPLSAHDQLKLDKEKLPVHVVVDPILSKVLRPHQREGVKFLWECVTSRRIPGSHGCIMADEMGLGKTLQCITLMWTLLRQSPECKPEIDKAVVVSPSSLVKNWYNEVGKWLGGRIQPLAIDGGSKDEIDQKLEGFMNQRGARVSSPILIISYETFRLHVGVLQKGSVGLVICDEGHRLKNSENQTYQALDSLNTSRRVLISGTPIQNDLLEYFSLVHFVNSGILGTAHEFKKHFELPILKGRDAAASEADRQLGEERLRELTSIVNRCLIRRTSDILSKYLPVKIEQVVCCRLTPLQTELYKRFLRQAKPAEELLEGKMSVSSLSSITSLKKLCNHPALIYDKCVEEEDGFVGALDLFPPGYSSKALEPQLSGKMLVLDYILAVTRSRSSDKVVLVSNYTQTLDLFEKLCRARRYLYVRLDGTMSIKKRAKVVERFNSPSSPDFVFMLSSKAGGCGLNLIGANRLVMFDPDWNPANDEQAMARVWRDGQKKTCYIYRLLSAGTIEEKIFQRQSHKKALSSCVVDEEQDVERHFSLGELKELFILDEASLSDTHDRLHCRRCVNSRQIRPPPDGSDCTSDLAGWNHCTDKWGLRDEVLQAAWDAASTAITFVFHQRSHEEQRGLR
Chain of Beta Lactamase (Q932Y6 whole entry): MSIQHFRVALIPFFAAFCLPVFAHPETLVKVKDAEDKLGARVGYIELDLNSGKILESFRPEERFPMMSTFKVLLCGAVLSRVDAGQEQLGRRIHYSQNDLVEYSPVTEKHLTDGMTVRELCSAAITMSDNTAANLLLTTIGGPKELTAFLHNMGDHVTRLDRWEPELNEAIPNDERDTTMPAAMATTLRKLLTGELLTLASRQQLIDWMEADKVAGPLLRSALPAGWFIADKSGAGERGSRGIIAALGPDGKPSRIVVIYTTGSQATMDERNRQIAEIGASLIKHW

## CC(C)(C)[C@H](N)C(=O)N[C@H]1CCC2C3CC=C4C[C@@H](O)CC[C@]4(C)C3CC[C@@]21C (stereo partly drawn)
[1]
  IC50: 17.7 µM (inactive)
[2]
  AC50: 3.67 µM (active)
[3]
  IC50: 19.5 µM (inactive)
[4]
  AC50: 40.7 µM (active)
[5]
  AC50: 9.31 µM (active)

## Cc1nc2c(o1)C(=O)c1ccccc1C2=Nc1ccccc1
[6]
  IC50: 155 µM (inactive)
[7]
  IC50: > 80 µM (inactive)
[8]
  AC50: 2.74 µM (active)
[9]
  AC50: 4.8 µM (active)
[10]
  AC50: 4.25 µM (active)
[11]
  AC50: 3.45 µM (active)
[12]
  AC50: 5.92 µM (active)

## Nc1cc2c3c(cccc3c1)C(=O)N(CCN1CCCC1)C2=O
[13]
  EC50: > 150 µM (inconclusive)
[14]
  AC50: 5.82 µM (active)
[15]
  EC50: > 10.1 µM (inactive)
[16]
  EC50: > 350 µM (not active)
[17]
  EC50: 19.5 µM (active)
[18]
  AC50: 3.43 µM (active)
[19]
  EC50: > 91.2 µM (inactive)
[20]
  EC50: 20.6 µM (active)
[21]
  EC50: > 350 µM (not active)
[22]
  EC50: 13.2 µM (active)
[23]
  EC50: 0.286 µM (active)
